We go through one compound from US20180361032A1, “IMPLANTABLE ELECTROSPUN PATCHES FOR SITE-DIRECTED DRUG DELIVERY” (The Methodist Hospital, priority 2016, published 2018).

Structures are written as SMILES.

The test system of the assay is inflammation induced by the implant. In words: Expression of inflammation-related genes in sciatic nerve and surrounding muscle tissue after implant. It is filed as in vivo, rodent. As to conditions: release of bupivacaine from the implant. The text has this: FIG. 13A, FIG. 13B, FIG. 13C, FIG. 13D, and FIG. 13E show the expression of genes related to inflammation in sciatic nerve tissue: TNF-α (FIG. 13A); IL-1β (FIG. 13B); IL-6 (FIG. 13C); PTGS2 (COX-2) (FIG. 13D); and NOS2 (FIG. 13E); respectively; FIG. 14A, FIG. 14B, FIG. 14C, FIG. 14D, and FIG. 14E show the expression of genes related to inflammation in surrounding muscle tissue: COX-2 expression (FIG. 14A); IL-6 expression (FIG. 14B); TNF-α expression (FIG. 14C); IL-1β expression (FIG. 14D); and iNOS expression (FIG. 14E);

For `CCCCN1CCCCC1C(=O)Nc1c(C)cccc1C` (stereo not shown) [bupivacaine], the “inflammation induced by the implant” value is reported as “decreased the inflammation induced by the implant”.
